Measured values reported in patent US8697714B2, “Quinazolinone based fluorogenic probes” (Nanyang Technological University, priority 2010, dated 2014).

How the values were obtained:
monoamine oxidase A = target: T1, monoamine oxidase A (Homo sapiens, UniProt P21397); assay: Fluorescent enhancement of MAO substrates after incubation with MAO A; assay type: biochemical; settings: MAO A 10 μg/ml, substrate 200 μM, 37° C., 2 hours, emission 530 nm
T1 construct: purchased Sigma Aldrich
T1 sequence (P21397 1-527): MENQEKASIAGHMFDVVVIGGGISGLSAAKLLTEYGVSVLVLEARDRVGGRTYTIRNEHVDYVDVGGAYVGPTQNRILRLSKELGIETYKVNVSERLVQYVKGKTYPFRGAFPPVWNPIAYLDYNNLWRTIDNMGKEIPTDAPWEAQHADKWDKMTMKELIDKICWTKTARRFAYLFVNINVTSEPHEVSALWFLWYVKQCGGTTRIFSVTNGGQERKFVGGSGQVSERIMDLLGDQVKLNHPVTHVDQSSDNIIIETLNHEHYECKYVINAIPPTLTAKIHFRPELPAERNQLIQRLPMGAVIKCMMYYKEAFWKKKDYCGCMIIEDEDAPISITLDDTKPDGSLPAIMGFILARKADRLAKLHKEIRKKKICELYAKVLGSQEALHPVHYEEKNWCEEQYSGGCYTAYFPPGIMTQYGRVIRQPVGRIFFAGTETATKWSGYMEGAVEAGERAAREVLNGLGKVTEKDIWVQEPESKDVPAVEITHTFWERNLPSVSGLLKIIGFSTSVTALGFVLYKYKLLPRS
Protocol: (§1) Activity of fluorogenic MAO-HPQ 1, 2 and 3 were determined by the fluorescence intensity after incubations separately with monoamine oxidase A or B at 37° C. for 2 hours. Typically, 5 μl of MAO A and B enzyme solution (final concentration of 10 μg/ml) was incubated with MAO substrates 1, 2 and 3 (final concentration of 200 μM) in a 100 mM Tris-HCl buffer, pH 7.90, 5% glycerol and 5% DMSO. After 2 hours of incubation, the fluorescent enhancement was monitored by Fluorescence spectrophotometer with excitation wavelength at 360 nm.
(§2) The activity of these three probes (MAO-HPQ 1˜3) towards both MAO isozymes were investigated by in vitro fluorescent measurements. All the MAO substrates 1, 2, and 3 were very stable in aqueous solutions and were almost non-fluorescent before MAO enzymatic oxidation due to the alkylation of the 2′-hydroxyl group in the 2-(2′-hydroxy-5′-chlorophenyl)-6-chloro-4(3H)-quinazolinone fluorophore.
(§3) The ratio of fluorescent intensity in the presence and absence of MAO enzymes were used to estimate MAO activities.

monoamine oxidase B = target: T2, monoamine oxidase B (Homo sapiens, UniProt P27338); assay: Fluorescent enhancement of MAO substrates after incubation with MAO B; assay type: biochemical; settings: MAO B 10 μg/ml, substrate 200 μM, 37° C., 2 hours, emission 530 nm
T2 construct: purchased Sigma Aldrich
T2 sequence (P27338 1-520): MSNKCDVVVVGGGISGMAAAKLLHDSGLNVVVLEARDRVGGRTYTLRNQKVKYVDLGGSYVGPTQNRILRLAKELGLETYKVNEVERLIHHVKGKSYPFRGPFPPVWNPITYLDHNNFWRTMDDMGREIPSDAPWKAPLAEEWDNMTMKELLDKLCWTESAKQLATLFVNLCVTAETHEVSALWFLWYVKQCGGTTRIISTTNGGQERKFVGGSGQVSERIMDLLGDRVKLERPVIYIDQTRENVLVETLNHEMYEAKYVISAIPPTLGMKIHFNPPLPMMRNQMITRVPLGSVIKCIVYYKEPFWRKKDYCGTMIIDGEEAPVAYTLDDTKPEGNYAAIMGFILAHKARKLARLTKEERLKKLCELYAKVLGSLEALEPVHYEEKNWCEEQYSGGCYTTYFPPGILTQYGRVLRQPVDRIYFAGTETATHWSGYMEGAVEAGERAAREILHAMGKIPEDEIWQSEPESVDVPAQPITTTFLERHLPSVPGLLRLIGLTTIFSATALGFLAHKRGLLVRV
Protocol: as §1, §2, §3

PC12 cell line = assay: Cell viability, standard MTT assay; assay type: cell-based, Rattus norvegicus; settings: FIG. 6
Protocol: FIG. 6 illustrates the cell viability of substrate MAO-HPQ 1 (2-(5′-chloro-2′-(3-aminopropoxy)phenyl)-6-chloro-4(3H)-quinazolinone) and 2-(2′-hydroxy-5′-chlorophenyl)-6-chloro-4(3H)-quinazolinone (indicated as HPQ″) in PC12 cell line. As a Control, cells were treated with 5% of DMSO only.
the cytotoxicity activity of MAO-HPQ 1 was evaluated by the standard MTT assay as previously described in Y. H. Choi et al, J. Control. Rel., 1998, 54, 39-48. MAO-HPQ 1 indicates less toxicity and thereby can be used as a probe for real-time imaging of MAO activity in living cells (FIG. 6).

[1] = test system: MAO activity in PC12 cells; assay: Imaging of MAO activity in living PC12 cells; assay type: cell-based, Rattus norvegicus; settings: 100 μM, 37° C., 1 h
Protocol: (§4) PC12 cell (Rattus norvegicus, adrenal gland) was bought from American Type Culture Collection (ATCC Cat No: CR-1721) and maintained in F-12K medium (ATCC, Manassas Va.) containing 10% FBS (Invitrogen, Burlington, Canada). PC12 cell line were seeded at a density of 2×10^5 in a 35 mm diameter μ-dish plastic bottom (ibidi GmbH, Germany) and cultured for 2 days with Nerve Growth Factor (2.5S, 30 ng/mL, Invitrogen, Carlsbad, Calif.)^[2] in Dulbecco's Modified Eagle Medium (DMEM 1×, without phenol red, Gibco/Invitrogen, Carlsbad, Calif.) containing 4.5 g/L D-glucose, 2 mM GlutaMax-1 (Invitrogen). Control C6 glioma cell line was bought from American Type Culture Collection (ATCC Cat No.: CCL-107) and cultured with the same protocol as PC12 cell lines). After 2 days of culture, the live PC12 and C6 glioma cell lines were washed twice with DMEM. The live cells were then treated separately with 100 μM of MAO-HPQ 1 in DMEM (containing 0.5% of DMSO) and incubated for 1 hour in an incubator at 37° C. The cells were washed twice with Hank's Balanced Salt solution (Sigma). The fluorescence imaging was acquired with a Confocal fluorescence microscope (Nikon, Eclipse TE2000-E) using a super high pressure mercury lamp (Nikon, TE2-PS100W) with excitation filter: 360/40 nm; emission filter: 535/40 nm.
(§5) PC12 cell line was chosen owing to its high expression of MAO. […]

C6 glioma cells = assay: Imaging in living C6 glioma cells (negative control, no MAO expression); assay type: cell-based; settings: 100 μM, 37° C., 1 h
Protocol: as §4, §5

[2] = Stability of substrates in aqueous solutions; assay type: physicochemical; settings: before MAO enzymatic oxidation
Description: as §2

[3] = test system: MAO activity in PC12 cells; assay: Inhibition imaging: PC12 cells pre-treated with inhibitor, then MAO-HPQ 1; assay type: cell-based, Rattus norvegicus; settings: 100 μM inhibitor pre-treatment, then 100 μM MAO-HPQ 1, 37° C., 1 h
Protocol: In the inhibition investigation, the live PC12 cell lines were washed twice with DMEM and pre-treated separately with 100 μM Clorgyline and Pargyline in DMEM for 1 hour in an incubator at 37° C. MAO-HPQ 1 was then added to the μ-dish with the final concentration of 100 μM and incubated for another 1 hour at 37° C. The cells were then washed twice with Hank's Balanced Salt solution. The fluorescence imaging was acquired with the Confocal fluorescence microscope.
Further imaging investigations were conducted by utilizing two commonly used inhibitors: Clorgyline for MAO A and Pargyline for MAO B. The PC12 cells were pre-treated separately with 100 μM of MAO A inhibitor clorgyline and MAO B inhibitor pargyline, and then incubated with 100 μM of MAO-HPQ probe 1 at 37° C. for 1 h. […] This is in accordance with the in vitro enzyme inhibition tests (FIG. 5). MAO-HPQ 1 indicates less toxicity (FIG. 6) and thereby can be used as a new probe for real-time imaging of MAO activity in living cells.

| SMILES | maximum fluorescent enhancement (ratio of fluorescent intensity in the presence and absence of MAO enzyme) (monoamine oxidase A) [fold] | maximum fluorescent enhancement (ratio of fluorescent intensity in the presence and absence of MAO enzyme) (monoamine oxidase B) [fold] | stability in aqueous solutions [2] | cytotoxicity activity (MTT) (PC12 cell line) | fluorescence in live cell imaging [1] | fluorescence in live cell imaging (C6 glioma cells) | fluorescence of PC12 cells pre-treated with inhibitor (MAO inhibition in living cells) [3] |
| --- | --- | --- | --- | --- | --- | --- | --- |
| NCCCOc1ccc(Cl)cc1-c1nc2ccc(Cl)cc2c(=O)[nH]1 [MAO-HPQ 1, 2-(5′-chloro-2′-(3-aminopropoxy)phenyl)-6-chloro-4(3H)-quinazolinone] | 307 | 300 | very stable | less toxicity | bright fluorescence signals | little | – |
| C#CCN(C)CCCOc1ccc(Cl)cc1Cl [clorgyline, Clorgyline] | – | – | – | – | – | – | no obvious fluorescence |
| C#CCN(C)Cc1ccccc1 [pargyline, Pargyline] | – | – | – | – | – | – | strong fluorescence similar to the imaging result without inhibitor treatment |

Second part, led by results:

| maximum fluorescent enhancement (ratio of fluorescent intensity in the presence and absence of MAO enzyme) (monoamine oxidase A) [fold] | maximum fluorescent enhancement (ratio of fluorescent intensity in the presence and absence of MAO enzyme) (monoamine oxidase B) [fold] | stability in aqueous solutions [2] | SMILES | cytotoxicity activity (MTT) (PC12 cell line) | fluorescence in live cell imaging [1] | fluorescence in live cell imaging (C6 glioma cells) | fluorescence of PC12 cells pre-treated with inhibitor (MAO inhibition in living cells) [3] |
| --- | --- | --- | --- | --- | --- | --- | --- |
| 15 | 20 | very stable | CNCCCOc1ccc(Cl)cc1-c1nc2ccc(Cl)cc2c(=O)[nH]1 [MAO-HPQ 2, 2-(5′-chloro-2′-(3-(N-methylamino)propoxy)phenyl)-6-chloro-4(3H)-quinazolinone] | – | – | – | – |
| 5 | 7 | very stable | CN(C)CCCOc1ccc(Cl)cc1-c1nc2ccc(Cl)cc2c(=O)[nH]1 [MAO-HPQ 3, 2-(5′-chloro-2′-(3-(N,N′-dimethylamino)propoxy)phenyl)-6-chloro-4(3H)-quinazolinone] | – | – | – | – |
